Results as given in patent US20070196421A1, “Soft tissue implants and drug combination compositions, and use thereof” (priority 2005, published 2007).
Counter-ions that a name gives are not always drawn.

Assays:
E. coli UB1005 C498 = assay: MIC by microtitre broth dilution; type: cell-based; conditions: Gram−, wt, Mueller Hinton broth, 37° C., 24 h
Description: (§1) MIC assays were conducted essentially as described by Amsterdam, D. 1996, “Susceptibility testing of antimicrobials in liquid media”, p. 52-111, in Loman, V., ed. Antibiotics in laboratory medicine, 4th ed. Williams and Wilkins, Baltimore, Md.

[1] = system: K. pneumoniae ATCC13883 C238; assay: MIC by microtitre broth dilution; type: cell-based; conditions: Gram−, wt, Mueller Hinton broth, 37° C., 24 h
Description: as §1

[2] = system: P. aeruginosa PAE/K799 H187; assay: MIC by microtitre broth dilution; type: cell-based; conditions: Gram−, wt, Mueller Hinton broth, 37° C., 24 h
Description: as §1

S. aureus ATCC25923 C622 = assay: MIC by microtitre broth dilution; type: cell-based; conditions: Gram+, wt, Mueller Hinton broth, 37° C., 24 h
Description: as §1

S. epidermidis C621 = assay: MIC by microtitre broth dilution; type: cell-based; conditions: Gram+, wt, Mueller Hinton broth, 37° C., 24 h
Description: as §1

S. pyogenes C721 = assay: MIC by microtitre broth dilution; type: cell-based; conditions: Gram+, wt, Todd Hewitt broth, 37° C., 24 h
Description: as §1

[3] = cited from earlier work; for solubility in alcohol / ethanol (in words): alcohol or ethanol
[4] = system: immunosuppressive agents, such as cyclosporine; assay: potency of immunosuppressive agents (enhancer effect)
[5] = system: multiple drug-resistant strains of C. glabrata; assay: antifungal activity against C. glabrata; type: cell-based; conditions: antifungal agent used in combination with the manganese compound
glucocorticoid receptor = glucocorticoid receptor trafficking (mechanism study); type: cell-based
[6] = system: GRE reporter plasmid in T cells; assay: transactivation of a transfected GRE reporter plasmid in T cells; type: cell-based
NFAT = NFAT activation, translocation and transactivation; type: cell-based
AP1 = AP1 activation; type: cell-based
p38 = p38 activation; type: cell-based
JNK = JNK activation; type: cell-based
[7] = system: carrageenan-induced paw edema; assay: Rat carrageenan-induced paw edema model: paw swelling; type: in vivo; conditions: local injection in paw at T-1 hr, Tmax = 6 hrs
Description: (§2) A dose-range finding study was performed to determine the anti-inflammatory activity of various ratios of methyl prednisolone acetate and amoxapine in a rat carrageenan-induced paw edema model. […] The molar ratio of methyl prednisolone acetate to amoxapine ranged from 1:1 to 1:300, using total doses of methyl prednisolone acetate of 0.01, 0.03 or 0.1 mg/kg.
(§3) The test agent (a combination of methyl prednisolone acetate and amoxapine), vehicle control, or reference agents (methyl prednisolone acetate, amoxapine, or Depo-Medrol®) were administered in the left hind foot pad of rats. After 60 minutes, paw edema was induced by injection of 100 μl of 1% carrageenan in the same foot pad. The paw volume was measured with a water displacement plethysmometer immediately prior to test agent injection (T−1h), at the time of carrageenan injection (T0h), and at T6h. Animals were euthanized by carbon dioxide inhalation. Paw tissue samples were collected and flash frozen in liquid nitrogen. Samples were assayed for TNF-α by enzyme-linked immunoassay (ELISA).

TNF-α = assay: Rat carrageenan-induced paw edema model: TNF-α in paw tissue by ELISA; type: in vivo
Description: as §2, §3

SMILES	Minimum inhibitory concentration (E. coli UB1005 C498)	Minimum inhibitory concentration [1]	Minimum inhibitory concentration [2]	Minimum inhibitory concentration (S. aureus ATCC25923 C622)	Minimum inhibitory concentration (S. epidermidis C621)	Minimum inhibitory concentration (S. pyogenes C721)	other results
CC[C@@]1(O)C(=O)OCc2c1cc1n(c2=O)Cc2cc3ccccc3nc2-1 [camptothecin, camptothecins]	N	N	N	N	10^−4 Molar	N	
Nc1ccc(/N=N\c2ccccc2)c(N)n1 [phenazopyridine-HCl]							solubility in water (in words) [3]: slightly soluble
CCN(CC)C(C)CN1c2ccccc2Sc2ccccc21 (stereo not drawn) [Ethopropazine, ethopropazine]							effect on the potency of immunosuppressive agents [4]: increases the potency
O=c1[nH]cc(F)c(=O)[nH]1 [5-fluorouracil, 5-FU]	10^−6 Molar	10^−6 Molar	10^−5 Molar	10^−7 Molar	10^−7 Molar	10^−4 Molar	
CNCCCC12CCC(c3ccccc31)c1ccccc12 [maprotiline, Maprotiline]							effect on the potency of immunosuppressive agents [4]: increases the potency
Nc1ccc(/N=N/c2ccccc2)c(N)n1 [Phenazopyridine base, phenazopyridine]							solubility in alcohol / ethanol (in words) [3]: slightly soluble; solubility in water (in words) [3]: slightly soluble
O=C1c2c(O)ccc(O)c2C(=O)c2c(NCCNCCO)ccc(NCCNCCO)c21 [mitoxantrone]	10^−5 Molar	10^−6 Molar	10^−5 Molar	10^−5 Molar	10^−5 Molar	10^−6 Molar	
CN(C)C(=O)C(CCN1CCC(O)(c2ccc(Cl)cc2)CC1)(c1ccccc1)c1ccccc1 [Loperamide]							effect on the potency of immunosuppressive agents [4]: increase the potency
NC(=O)NO [hydroxyurea]	N	N	10^−4 Molar	N	N	10^−4 Molar	
Nc1ccn([C@@H]2O[C@H](CO)[C@@H](O)[C@@H]2O)c(=O)n1 [Cytarabine, cytarabine]	N	N	N	N	N	N	
COc1cccc2c1C(=O)c1c(O)c3c(c(O)c1C2=O)C[C@@](O)(C(=O)CO)C[C@@H]3O[C@H]1C[C@H](N)[C@H](O)[C@H](C)O1 [doxorubicin]	10^−4 Molar	10^−6 Molar	10^−5 Molar	10^−5 Molar	10^−6 Molar	10^−7 Molar	
CCC(C)n1ncn(-c2ccc(N3CCN(c4ccc(OC[C@H]5CO[C@](Cn6cncn6)(c6ccc(Cl)cc6Cl)O5)cc4)CC3)cc2)c1=O (mixture of isomers) [itraconazole]							enhancement of antifungal activity by the manganese compound [5]: enhances
Fc1ccc([C@@H]2CCNC[C@H]2COc2ccc3c(c2)OCO3)cc1 [paroxetine]							glucocorticoid receptor trafficking (glucocorticoid receptor): does not promote; potentiation of prednisolone's ability to transactivate a GRE reporter plasmid [6]: does not promote glucocorticoid receptor trafficking or potentiate; NFAT activation, translocation and transactivation (NFAT): represses; AP1 activation (AP1): inhibits; p38 activation (p38): inhibition; JNK activation (JNK): inhibition
Oc1cc(Cl)ccc1Oc1ccc(Cl)cc1Cl [triclosan, Triclosan]							effect on the potency of immunosuppressive agents [4]: increases the potency
CN(Cc1cnc2nc(N)nc(N)c2n1)c1ccc(C(=O)N[C@@H](CCC(=O)O)C(=O)O)cc1 [methotrexate]	N	10^−6 Molar	N	10^−5 Molar	N	10^−6 Molar	
CC(=O)OCC(=O)[C@@]1(O)CC[C@H]2[C@@H]3C[C@H](C)C4=CC(=O)C=C[C@]4(C)[C@H]3[C@@H](O)C[C@@]21C [MePredAc, methyl prednisolone acetate]							Edema ± SEM ([7]; 0.01 mg/kg): 32.6 ± 5.3%; Edema ± SEM ([7]; 0.03 mg/kg): 26.2 ± 7.0%; Edema ± SEM ([7]; 0.1 mg/kg): 12.2 ± 1.8%; TNF-α ± SEM (TNF-α; 0.01 mg/kg): 35.9 ± 11.3 pg/g; TNF-α ± SEM (TNF-α; 0.03 mg/kg): 19.2 ± 3.1 pg/g; TNF-α ± SEM (TNF-α; 0.1 mg/kg): 28.0 ± 6.0 pg/g
Nc1ncnc2c1ccn2[C@@H]1O[C@H](CO)[C@@H](O)[C@H]1O [tubercidin]	N	N	N	N	N	N	
NC(=O)c1ncn([C@@H]2O[C@H](CO)[C@@H](O)[C@H]2O)n1 [Ribavirin, ribavirin]							solubility in alcohol / ethanol (in words) [3]: slightly soluble
COc1cc([C@@H]2c3cc4c(cc3[C@@H](O[C@@H]3O[C@@H]5CO[C@@H](C)O[C@H]5[C@H](O)[C@H]3O)[C@H]3COC(=O)[C@H]23)OCO4)cc(OC)c1O [etoposide]	N	10^−5 Molar	N	10^−5 Molar	10^−6 Molar	10^−5 Molar	
Sc1ncnc2nc[nH]c12 [6-mercaptopurine]	N	N	N	N	N	N	
N.N.[Cl][Pt][Cl] [cisplatin]	N	N	10^−4 Molar	N	N	N	
CN(C/C=C/C#CC(C)(C)C)Cc1cccc2ccccc12.Cl [terbinafine, terbinafine hydrochloride]							enhancement of antifungal activity by the manganese compound [5]: enhances
Sc1ncc2[nH]cnc2n1 [2-mercaptopurine]	N	N	N	N	N	N	
CC[C@H](C)C[C@H](C)CCCCCCCCC(=O)N[C@H]1C[C@@H](O)[C@@H](NCCN)NC(=O)[C@@H]2[C@@H](O)CCN2C(=O)[C@H]([C@H](O)CCN)NC(=O)[C@H]([C@H](O)[C@@H](O)c2ccc(O)cc2)NC(=O)[C@@H]2C[C@@H](O)CN2C(=O)[C@H]([C@@H](C)O)NC1=O [caspofungin]							enhancement of antifungal activity by the manganese compound [5]: enhances
OC(Cn1cncn1)(Cn1cncn1)c1ccc(F)cc1F [fluconazole]							enhancement of antifungal activity by the manganese compound [5]: enhances
